Source: ChEMBL document CHEMBL5034035, “Discovery of an Oxycyclohexyl Acid Lysophosphatidic Acid Receptor 1 (LPA1) Antagonist BMS-986278 for the Treatment of Pulmonary Fibrotic Diseases” (J Med Chem, 2021)

Tests used:
Bile salt export pump = Bile salt export pump (Homo sapiens, UniProt O95342); test: Inhibition of BSEP (unknown origin); format: ADME
[1] = biological target: T1, Solute carrier organic anion transporter family member 1B1 (Homo sapiens, UniProt Q9Y6L6); test: Inhibition of OATP1B1 (unknown origin); format: ADME
T1 sequence (Q9Y6L6 whole entry): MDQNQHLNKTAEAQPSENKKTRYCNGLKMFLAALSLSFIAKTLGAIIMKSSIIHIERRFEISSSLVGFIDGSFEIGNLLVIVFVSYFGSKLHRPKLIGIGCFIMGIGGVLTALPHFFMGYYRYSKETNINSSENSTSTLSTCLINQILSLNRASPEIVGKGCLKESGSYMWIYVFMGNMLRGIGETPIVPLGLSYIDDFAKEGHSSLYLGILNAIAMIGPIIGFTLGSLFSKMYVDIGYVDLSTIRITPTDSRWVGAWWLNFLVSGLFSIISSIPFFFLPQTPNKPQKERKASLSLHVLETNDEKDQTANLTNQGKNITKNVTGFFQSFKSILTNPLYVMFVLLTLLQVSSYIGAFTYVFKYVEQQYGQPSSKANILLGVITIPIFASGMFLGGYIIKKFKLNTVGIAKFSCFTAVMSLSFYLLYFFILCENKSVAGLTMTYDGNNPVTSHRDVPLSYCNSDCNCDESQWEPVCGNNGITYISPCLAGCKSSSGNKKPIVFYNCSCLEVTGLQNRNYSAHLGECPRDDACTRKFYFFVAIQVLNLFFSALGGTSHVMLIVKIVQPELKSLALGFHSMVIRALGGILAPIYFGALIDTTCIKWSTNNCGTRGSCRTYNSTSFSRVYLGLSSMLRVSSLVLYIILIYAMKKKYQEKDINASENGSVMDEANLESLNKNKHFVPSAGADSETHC

[2] = Drug concentration in po dosed monkey plasma assessed as concentration of parent compound; format: ADME, organism-based, Macaca mulatta; conditions: rhesus monkey, in vivo
[3] = Protein binding in Sprague-Dawley rat plasma assessed as free fraction at 3 mg/kg, po or 1 mg/kg, iv measured up to 24 hrs by LC-MS/MS analysis; format: ADME, organism-based
[4] = Protein binding in human plasma assessed as free fraction at 3 mg/kg, po or 1 mg/kg, iv measured up to 24 hrs by LC-MS/MS analysis; format: ADME, organism-based
[5] = Protein binding in CD-1 mouse plasma assessed as free fraction at 3 mg/kg, po or 1 mg/kg, iv measured up to 24 hrs by LC-MS/MS analysis; format: ADME, organism-based

Chain of Bile salt export pump (O95342 whole entry): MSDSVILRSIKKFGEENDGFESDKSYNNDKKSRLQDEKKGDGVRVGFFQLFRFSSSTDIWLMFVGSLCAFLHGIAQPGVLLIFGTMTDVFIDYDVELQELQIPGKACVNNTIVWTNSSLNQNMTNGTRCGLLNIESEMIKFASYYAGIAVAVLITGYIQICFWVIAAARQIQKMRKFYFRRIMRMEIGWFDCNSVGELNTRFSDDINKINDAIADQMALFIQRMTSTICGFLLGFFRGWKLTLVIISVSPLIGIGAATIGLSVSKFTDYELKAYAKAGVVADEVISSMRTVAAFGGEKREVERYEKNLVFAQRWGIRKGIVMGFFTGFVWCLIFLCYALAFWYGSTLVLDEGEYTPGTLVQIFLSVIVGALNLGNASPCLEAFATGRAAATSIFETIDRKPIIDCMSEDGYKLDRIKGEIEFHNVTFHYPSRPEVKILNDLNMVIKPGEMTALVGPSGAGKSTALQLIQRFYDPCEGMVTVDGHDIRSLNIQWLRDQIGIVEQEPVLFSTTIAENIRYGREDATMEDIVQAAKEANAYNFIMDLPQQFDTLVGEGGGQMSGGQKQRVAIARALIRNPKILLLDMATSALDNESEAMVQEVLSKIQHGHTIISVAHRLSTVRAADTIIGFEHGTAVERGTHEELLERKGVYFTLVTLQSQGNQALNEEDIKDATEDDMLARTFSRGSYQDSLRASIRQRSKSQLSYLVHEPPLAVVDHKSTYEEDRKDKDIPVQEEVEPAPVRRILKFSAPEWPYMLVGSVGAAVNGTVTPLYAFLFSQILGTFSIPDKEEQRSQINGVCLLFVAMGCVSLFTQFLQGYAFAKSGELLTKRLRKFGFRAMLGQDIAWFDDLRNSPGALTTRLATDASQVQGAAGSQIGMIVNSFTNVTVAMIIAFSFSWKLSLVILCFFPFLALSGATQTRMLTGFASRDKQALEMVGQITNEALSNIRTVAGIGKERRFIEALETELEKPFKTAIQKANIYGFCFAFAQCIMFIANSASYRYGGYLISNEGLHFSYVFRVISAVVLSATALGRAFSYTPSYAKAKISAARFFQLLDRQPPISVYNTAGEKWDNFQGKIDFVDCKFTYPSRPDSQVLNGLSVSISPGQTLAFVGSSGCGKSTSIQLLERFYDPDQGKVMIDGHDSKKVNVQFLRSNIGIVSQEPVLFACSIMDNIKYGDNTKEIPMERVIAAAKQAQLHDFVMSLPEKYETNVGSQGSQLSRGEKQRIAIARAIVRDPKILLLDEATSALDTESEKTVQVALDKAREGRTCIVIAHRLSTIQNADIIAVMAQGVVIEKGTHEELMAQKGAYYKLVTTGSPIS

| Compound | IC50 (Bile salt export pump) [µM] | IC50 [1] [µM] | Drug uptake [2] [%] | fraction unbound at 24 h [3] | fraction unbound at 24 h [4] | fraction unbound at 24 h [5] |
| --- | --- | --- | --- | --- | --- | --- |
| Cc1noc(-c2ccc(O[C@H]3CCC[C@H](C(=O)O)C3)nn2)c1COC(=O)N(C)C1CCCC1 (racemic) | > 50 | 35.4 | – | – | – | – |
| CCCN(C)C(=O)OCc1c(-c2ccc(O[C@H]3CCC[C@H](C(=O)O[C@@H]4O[C@H](C(=O)O)[C@@H](O)[C@H](O)[C@H]4O)C3)c(C)n2)nnn1C | – | – | < 10 | – | – | – |
| CN(C(=O)OCc1c(-c2ccc(O[C@H]3CCC[C@H](C(=O)O)C3)cn2)nnn1C)C1CCCC1 | 46.3 | 9.2 | – | 0.025 | 0.025 | 0.083 |
| CCCNC(=O)OCc1c(-c2ccc(O[C@H]3CCC[C@H](C(=O)O)C3)c(C)n2)nnn1C | – | – | < 10 | – | – | – |
